Paper PMC12005229, “Final results from the phase Ia/Ib study of the novel bromodomain and extra-terminal domain inhibitor, BI 894999, in patients with advanced solid tumors or diffuse large B-cell lymphoma” (ESMO Open, 2025)
Where “and” joins values, the source holds several entries; their conditions need not be identical. Equal entries are not always repeated. Entries after “also recorded” stand apart in the source; their conditions may differ.

Assays:
patients with DLBCL = test: phase Ia DLBCL extension: DLTs, MTD, adverse events, exposure; assay type: in vivo; details: for DLT grade ≥3 / DLT / DLT duration / DLT grade / DLT outcome: individual patient events
From the text: The extension to the phase Ia dose escalation evaluated schedules B and C for patients with DLBCL.

[1] = tested on: nuclear protein in testis (NUT) carcinoma xenograft models; parameters: method as in PMID 35444289; details: cited from earlier work
[2] = DLBCL phase Ia extension n = 18
[3] = DLBCL, on-treatment period, schedule B 2.0 mg
[4] = DLBCL, on-treatment period, schedule C 4.0/2.0 mg
[5] = DLBCL, on-treatment period, schedule C 5.0/2.5 mg
[6] = DLBCL, schedule B 1.5 mg, MTD evaluation period
[7] = DLBCL, schedule B 2.0 mg, MTD evaluation period
[8] = DLBCL, schedule B 2.5 mg, MTD evaluation period
[9] = phase Ia DLBCL, MTD evaluation period

Structure (SMILES): CNc1nc(-c2nc3ccc(N4CCN(C)CC4)cc3n2Cc2ccccc2)cn2c(C)nnc12 [BI 894999]
- AEs leading to death (patients with DLBCL; [2]): 1 (5.6) n (%)
- AEs leading to discontinuation of trial drug (patients with DLBCL; [2]): 4 (22.2) n (%)
- AEs leading to dose reduction (patients with DLBCL; [2]): 3 (16.7) n (%)
- Any AE (patients with DLBCL; [2]): 18 (100) n (%)
- DLT in on-treatment period (patients with DLBCL; [2]): 8 (44.4) n (%)
- Treatment-related AEs (patients with DLBCL; [2]): 15 (83.3) n (%)
- Treatment-related serious AEs (patients with DLBCL; [2]): 2 (11.1) n (%)
- Anemia, treatment-related AE, any grade (patients with DLBCL; DLBCL phase Ia n = 18): 5 (27.8) n (%)
- Anemia, treatment-related AE, grade ≥3 (patients with DLBCL; DLBCL phase Ia n = 18): 5 (27.8) n (%)
- Asthenia, treatment-related AE, any grade (patients with DLBCL; DLBCL phase Ia n = 18): 2 (11.1) n (%)
- Asthenia, treatment-related AE, grade ≥3 (patients with DLBCL; DLBCL phase Ia n = 18): 0 n (%)
- Decreased appetite, treatment-related AE, any grade (patients with DLBCL; DLBCL phase Ia n = 18): 4 (22.2) n (%)
- Decreased appetite, treatment-related AE, grade ≥3 (patients with DLBCL; DLBCL phase Ia n = 18): 0 n (%)
- Decreased platelet count, treatment-related AE, any grade (patients with DLBCL; DLBCL phase Ia n = 18): 2 (11.1) n (%)
- Decreased platelet count, treatment-related AE, grade ≥3 (patients with DLBCL; DLBCL phase Ia n = 18): 2 (11.1) n (%)
- Diarrhea, treatment-related AE, any grade (patients with DLBCL; DLBCL phase Ia n = 18): 9 (50.0) n (%)
- Diarrhea, treatment-related AE, grade ≥3 (patients with DLBCL; DLBCL phase Ia n = 18): 0 n (%)
- Dysgeusia, treatment-related AE, any grade (patients with DLBCL; DLBCL phase Ia n = 18): 2 (11.1) n (%)
- Dysgeusia, treatment-related AE, grade ≥3 (patients with DLBCL; DLBCL phase Ia n = 18): 0 n (%)
- Epistaxis, treatment-related AE, any grade (patients with DLBCL; DLBCL phase Ia n = 18): 2 (11.1) n (%)
- Epistaxis, treatment-related AE, grade ≥3 (patients with DLBCL; DLBCL phase Ia n = 18): 0 n (%)
- Fatigue, treatment-related AE, any grade (patients with DLBCL; DLBCL phase Ia n = 18): 4 (22.2) n (%)
- Fatigue, treatment-related AE, grade ≥3 (patients with DLBCL; DLBCL phase Ia n = 18): 0 n (%)
- Hematoma, treatment-related AE, any grade (patients with DLBCL; DLBCL phase Ia n = 18): 2 (11.1) n (%)
- Hematoma, treatment-related AE, grade ≥3 (patients with DLBCL; DLBCL phase Ia n = 18): 0 n (%)
- Muscle spasms, treatment-related AE, any grade (patients with DLBCL; DLBCL phase Ia n = 18): 2 (11.1) n (%)
- Muscle spasms, treatment-related AE, grade ≥3 (patients with DLBCL; DLBCL phase Ia n = 18): 0 n (%)
- Nausea, treatment-related AE, any grade (patients with DLBCL; DLBCL phase Ia n = 18): 5 (27.8) n (%)
- Nausea, treatment-related AE, grade ≥3 (patients with DLBCL; DLBCL phase Ia n = 18): 0 n (%)
- Neutropenia, treatment-related AE, any grade (patients with DLBCL; DLBCL phase Ia n = 18): 4 (22.2) n (%)
- Neutropenia, treatment-related AE, grade ≥3 (patients with DLBCL; DLBCL phase Ia n = 18): 3 (16.7) n (%)
- Thrombocytopenia, treatment-related AE, any grade (patients with DLBCL; DLBCL phase Ia n = 18): 11 (61.1) n (%)
- Thrombocytopenia, treatment-related AE, grade ≥3 (patients with DLBCL; DLBCL phase Ia n = 18): 8 (44.4) n (%)
- Troponin increased, treatment-related AE, any grade (patients with DLBCL; DLBCL phase Ia n = 18): 2 (11.1) n (%)
- Troponin increased, treatment-related AE, grade ≥3 (patients with DLBCL; DLBCL phase Ia n = 18): 1 (5.6) n (%)
- DLT grade ≥3 (patients with DLBCL; DLBCL, on-treatment period, schedule B 1.5 mg): Increased troponin
- DLT duration, melena (patients with DLBCL; [3]): 7 days
- DLT grade, melena (patients with DLBCL; [3]): 3
- DLT grade ≥3 (patients with DLBCL; [3]): Thrombocytopenia; also recorded: Melena
- DLT grade ≥3 (patients with DLBCL; DLBCL, on-treatment period, schedule B 2.5 mg): Thrombocytopenia; also recorded: Sepsis; also recorded: Febrile neutropenia
- DLT grade, decreased platelet count (patients with DLBCL; [4]): 4
- DLT grade ≥3 (patients with DLBCL; [4]): Decreased platelet
- DLT duration, thrombocytopenia (patients with DLBCL; [5]): 8 days
- DLT grade, neutropenia (patients with DLBCL; [5]): 4
- DLT grade, thrombocytopenia (patients with DLBCL; [5]): 4
- DLT grade ≥3 (patients with DLBCL; [5]): Neutropenia; also recorded: Thrombocytopenia
- DLT (patients with DLBCL; [6]): Increased troponin
- DLT duration (patients with DLBCL; [6]): 5 days
- DLT grade (patients with DLBCL; [6]): 3
- DLT outcome (patients with DLBCL; [6]): Recovered
- DLT (patients with DLBCL; [7]): Thrombocytopenia
- DLT duration (patients with DLBCL; [7]): 11 days
- DLT grade (patients with DLBCL; [7]): 4
- DLT outcome (patients with DLBCL; [7]): Not recovered
- DLT (patients with DLBCL; [8]): Thrombocytopenia; also recorded: Sepsis; also recorded: Febrile neutropenia
- DLT duration (patients with DLBCL; [8]): 5 days and 6 days and 7 days and 2 days
- DLT grade (patients with DLBCL; [8]): 4 and 3
- DLT outcome (patients with DLBCL; [8]): Not recovered; also recorded: Recovered
- maximum tolerated dose (MTD) (patients with DLBCL; DLBCL, schedule B (days 1-14/21)): 1.5 mg
- maximum tolerated dose (MTD) (patients with DLBCL; DLBCL, schedule C): not declared
- anemia, grade ≥3 treatment-related AE (patients with DLBCL; phase Ia DLBCL): 27.8%
- anemia, treatment-related AE of any grade (patients with DLBCL; phase Ia DLBCL): 27.8%
- decreased platelet count, grade ≥3 treatment-related AE (patients with DLBCL; phase Ia DLBCL): 11.1%
- decreased platelet count, treatment-related AE of any grade (patients with DLBCL; phase Ia DLBCL): 11.1%
- diarrhea, treatment-related AE of any grade (patients with DLBCL; phase Ia DLBCL): 50.0%
- discontinuation because of DLT (patients with DLBCL; phase Ia DLBCL): 11.1%
- discontinuation because of other AEs (patients with DLBCL; phase Ia DLBCL): 5.6%
- discontinuation because of progressive disease (patients with DLBCL; phase Ia DLBCL): 83.3%
- dose discontinuations due to AEs (patients with DLBCL; phase Ia DLBCL): 22.2%
- dose reductions due to AEs (patients with DLBCL; phase Ia DLBCL): 16.7%
- fatigue, treatment-related AE of any grade (patients with DLBCL; phase Ia DLBCL): 22.2%
- increased troponin, treatment-related AE of any grade (patients with DLBCL; phase Ia DLBCL): 11.1%
- lymph node pain leading to dose discontinuation (patients with DLBCL; phase Ia DLBCL): 5.6%
- median time to first dose reduction (patients with DLBCL; phase Ia DLBCL): 36.0 days
- nausea, treatment-related AE of any grade (patients with DLBCL; phase Ia DLBCL): 27.8%
- neutropenia leading to dose discontinuation (patients with DLBCL; phase Ia DLBCL): 5.6%
- neutropenia, grade ≥3 treatment-related AE (patients with DLBCL; phase Ia DLBCL): 16.7%
- neutropenia, treatment-related AE of any grade (patients with DLBCL; phase Ia DLBCL): 22.2%
- patients who underwent dose reductions (patients with DLBCL; phase Ia DLBCL): 16.7%
- patients with AEs of any grade (patients with DLBCL; phase Ia DLBCL): 100%
- patients with treatment-related AEs (patients with DLBCL; phase Ia DLBCL): 83.3%
- thrombocytopenia leading to dose discontinuation (patients with DLBCL; phase Ia DLBCL): 11.1%
- thrombocytopenia, grade ≥3 treatment-related AE (patients with DLBCL; phase Ia DLBCL): 44.4%
- thrombocytopenia, treatment-related AE of any grade (patients with DLBCL; phase Ia DLBCL): 61.1%
- DLT grade 3 febrile neutropenia (patients with DLBCL; [9]): 7.7%
- DLT grade 3 increased troponin (patients with DLBCL; [9]): 7.7%
- DLT grade 4 sepsis (patients with DLBCL; [9]): 7.7%
- DLT grade 4 thrombocytopenia (patients with DLBCL; [9]): 23.1%
- assessable patients with DLTs (patients with DLBCL; [9]): 4/17
- total patients with DLTs during the on-treatment period (patients with DLBCL; phase Ia DLBCL, schedule B): 5 n
- patients with DLTs (patients with DLBCL; phase Ia DLBCL, schedule B 1.5 mg, MTD evaluation period): 1 n
- patients with DLTs (patients with DLBCL; phase Ia DLBCL, schedule B 2.0 mg, MTD evaluation period): 1 n
- patients with DLTs (patients with DLBCL; phase Ia DLBCL, schedule B 2.5 mg, MTD evaluation period): 2 n
- patients with DLTs (patients with DLBCL; phase Ia DLBCL, schedule B (n = 13), MTD evaluation period): 30.8%
- total patients with DLTs during the on-treatment period (patients with DLBCL; phase Ia DLBCL, schedule C): 3 n
- patients with DLTs (patients with DLBCL; phase Ia DLBCL, schedule C, MTD period): No patients receiving schedule C experienced DLTs; also recorded: a No DLBCL patients on schedule C experienced DLTs on BI 894999
- effect in NUT carcinoma xenograft models [1]: tumor regressions
